Molecules are shown by their SMILES. Active and inactive are the calls of the source. The calls are words filed in the database; no cut-off is given here.

Results on two compounds are retold here after ChEMBL document CHEMBL1157008, “Discovery of 2-{4-[(3S)-piperidin-3-yl]phenyl}-2H-indazole-7-carboxamide (MK-4827): a novel oral poly(ADP-ribose)polymerase (PARP) inhibitor efficacious in BRCA-1 and -2 mutant tumors” (J Med Chem, 2009).

The nature of data set [1]: Antiproliferative activity against HMEC after 6 to 7 days by cell titer-blue assay. Particulars: human, HMEC cells. Background: Alamar Blue is a resazurin reagent that responds to reducing activity.
The test system of data set [2] is HeLa. The experiment in a line: Antiproliferative activity against BRCA1 deficient human HeLa cells after 7 days by cell titer-blue assay. It counts as functional. Particulars: 168 h.
In data set [3] the test system is HeLa. Put plainly: Antiproliferative activity against human HeLa cells expressing wild type BRCA1 after 7 days by cell titer-blue assay. It counts as functional. The settings on record: 168 h.
Data set [4] can be described thus: Intrinsic clearance in rat liver microsomes assessed per mg of protein up to 90 mins. The class given is ADME, Microsome. For orientation: Liver microsomes are a subcellular fraction often used to study metabolism.
Data set [5] in a line: Intrinsic clearance in mouse liver microsomes assessed per mg of protein up to 90 mins. It counts as ADME, Microsome.
Data set [6] in a line: Plasma clearance in rat. It counts as ADME, organism-based.
Data set [7] can be described thus: Oral bioavailability in rat. Particulars: in vivo. It counts as ADME, organism-based.
The target of another data set is T1, Cytochrome P450 1A2 (Rattus norvegicus, UniProt P04799).
T1 sequence (P04799 whole entry): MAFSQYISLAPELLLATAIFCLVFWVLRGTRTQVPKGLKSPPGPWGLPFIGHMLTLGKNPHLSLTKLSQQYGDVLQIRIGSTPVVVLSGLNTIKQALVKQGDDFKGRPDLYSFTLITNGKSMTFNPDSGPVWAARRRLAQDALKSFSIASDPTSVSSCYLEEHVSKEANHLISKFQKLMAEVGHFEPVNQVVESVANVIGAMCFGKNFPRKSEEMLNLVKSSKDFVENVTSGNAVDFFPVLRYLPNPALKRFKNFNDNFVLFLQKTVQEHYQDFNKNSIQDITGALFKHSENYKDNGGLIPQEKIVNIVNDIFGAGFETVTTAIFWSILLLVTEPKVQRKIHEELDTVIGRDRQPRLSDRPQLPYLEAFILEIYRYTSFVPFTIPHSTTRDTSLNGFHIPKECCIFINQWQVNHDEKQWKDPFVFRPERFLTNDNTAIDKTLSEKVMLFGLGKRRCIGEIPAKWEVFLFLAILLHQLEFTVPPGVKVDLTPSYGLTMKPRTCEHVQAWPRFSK
Put plainly: (§1) Intrinsic clearance in rat liver microsomes assessed per mg of protein up to 60 mins in presence of rat recombinant CYP1A2. It counts as ADME, Microsome. The settings on record: microsomes, 1 h.

Data set [8] in a line: Antiproliferative activity against human PrEC cells after 6 to 7 days by cell titer-blue assay.
Data set [9] concerns MDA-MB-436. The settings on record: Homo sapiens, 100 mg/kg.
Description: Antitumor activity against human MDA-MB-436 cells expressing BRCA1 5396 + 1G>A mutant xenografted in CD1 mouse assessed as tumor regression at 100 mg/kg, po qd for 33 days
For data set [10], the system named is MDA-MB-436. Particulars: Homo sapiens, 50 mg/kg.
Description: Antitumor activity against human MDA-MB-436 cells expressing BRCA1 5396 + 1G>A mutant xenografted in CD1 mouse assessed as tumor regression at 50 mg/kg, po bid for 33 days
Data set [11] concerns the target T2, PARP 1, 2 and 3 (Homo sapiens, UniProt P09874+Q9Y6F1+Q9UGN5). Particulars: HeLa.
The nature of a further data set: cells. The settings on record: Homo sapiens, MDA-MB-436, 144 h.
For another data set, the system named is CAPAN-1. Put plainly: cells. The settings on record: Homo sapiens, CAPAN-1, 312 h.
A short description of data set [12]: Intrinsic clearance in rat lung microsomes assessed per mg of protein in presence of NADPH. It counts as ADME, Microsome.
Data set [13] addresses Poly [ADP-ribose] polymerase 1 (Homo sapiens, UniProt P09874). Put plainly: Inhibition of human PARP1 by SPA.
Data set [14] addresses T2, PARP 1, 2 and 3. Put plainly: Inhibition of PARP in hydrogen peroxide-induced human HeLa cells assessed as inhibition DNA-damage-induced PARylation. The class given is cell-based.
In data set [15] the test system is HeLa. The experiment in a line: Selectivity index, ratio of CC50 for BRCA1 proficient human HeLa cells to CC50 for BRCA1 deficient human HeLa cells. It counts as functional.
Data set [16] is described as follows: Biodistribution in iv dosed rat urine within 24 hrs. The settings on record: in vivo. It counts as ADME, organism-based.
Data set [17] is described as follows: Biodistribution in iv dosed rat urine assessed as tert-butyl (3S)-3-{4-[7-(aminocarbonyl)-2H-indazol-2-yl]phenyl}piperidine-1-carboxylate level within 24 hrs. It counts as ADME, organism-based. The settings on record: in vivo.
For the next data set, the target named is T3, CYP1A2 (Rattus norvegicus, UniProt P04799).
T3 sequence (P04799 whole entry): T1 sequence (P04799 whole entry)
Described as §1. The class given is ADME, Microsome. The settings on record: rat liver microsomes with rat recombinant CYP1A2.

Data set [18] in a line: Metabolic stability in rat heart microsomes assessed as compound degradation in presence of NADPH. It counts as ADME.
Data set [19] in a line: Intrinsic clearance in rat kidney microsomes assessed per mg of protein in presence of NADPH. It counts as ADME, Microsome.
Data set [20] in a line: Intrinsic clearance in rat liver microsomes assessed per mg of protein in presence of NADPH. The class given is ADME, Microsome.
Data set [21] can be described thus: Intrinsic clearance in rat intestine microsomes assessed per mg of protein in presence of NADPH. The class given is ADME, Microsome.

Chain of Poly [ADP-ribose] polymerase 1 (P09874 whole entry): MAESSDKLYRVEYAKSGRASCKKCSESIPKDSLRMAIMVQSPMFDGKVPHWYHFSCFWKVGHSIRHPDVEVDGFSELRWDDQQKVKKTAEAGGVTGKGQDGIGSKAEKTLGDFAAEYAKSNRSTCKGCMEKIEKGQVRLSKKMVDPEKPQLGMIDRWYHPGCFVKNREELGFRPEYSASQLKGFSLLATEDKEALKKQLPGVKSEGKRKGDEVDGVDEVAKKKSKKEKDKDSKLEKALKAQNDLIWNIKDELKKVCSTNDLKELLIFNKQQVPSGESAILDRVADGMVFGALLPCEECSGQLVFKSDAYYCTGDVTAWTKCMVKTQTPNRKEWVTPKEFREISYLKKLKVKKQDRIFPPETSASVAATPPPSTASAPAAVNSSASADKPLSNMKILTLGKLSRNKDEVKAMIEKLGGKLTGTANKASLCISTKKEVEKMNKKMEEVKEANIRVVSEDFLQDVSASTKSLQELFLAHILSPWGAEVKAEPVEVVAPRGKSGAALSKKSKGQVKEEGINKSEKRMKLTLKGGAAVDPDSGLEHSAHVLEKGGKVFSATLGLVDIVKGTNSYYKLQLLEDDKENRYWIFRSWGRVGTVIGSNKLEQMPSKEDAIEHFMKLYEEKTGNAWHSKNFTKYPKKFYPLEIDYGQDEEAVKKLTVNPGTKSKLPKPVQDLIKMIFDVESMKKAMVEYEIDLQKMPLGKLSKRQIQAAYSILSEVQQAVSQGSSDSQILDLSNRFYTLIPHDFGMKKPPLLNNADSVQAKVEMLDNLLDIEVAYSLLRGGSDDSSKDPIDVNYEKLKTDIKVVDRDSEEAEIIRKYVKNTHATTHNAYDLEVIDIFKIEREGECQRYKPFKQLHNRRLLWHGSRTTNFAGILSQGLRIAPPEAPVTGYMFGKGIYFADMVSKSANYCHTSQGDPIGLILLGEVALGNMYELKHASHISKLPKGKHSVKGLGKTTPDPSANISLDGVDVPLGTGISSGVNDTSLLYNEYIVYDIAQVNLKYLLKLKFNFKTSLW
Description for CAPAN-1: Antiproliferative activity against human Capan1 cells expressing BRCA2 6174delT mutation and loss of wild-type allele after 13 days by cell titer-blue assay

On to `NC(=O)c1cccc2cn(-c3ccc([C@@H]4CCCNC4)cc3)nc12` [NIRAPARIB], for which the CC50 (as a rule, the concentration that lowers cell viability or growth by half) was > 5000 nM in [1]; 33 nM in the data set on HeLa [2]; 860 nM in the data set on HeLa [3]; > 5000 nM in [8]; 18 nM in the data set “cells”; 90 nM in the data set with CAPAN-1. For the same compound, the values for the microsomal CLint in data set [4] and in [5] were 16 µL/min/mg and 4 µL/min/mg, respectively. Also, the clearance (as a rule, the rate of elimination divided by the concentration) in [6] was 28 mL/min/kg. The bioavailability – broadly, the share of a dose that reaches the circulation, judged against a reference dose that is usually intravenous – in data set [7] came out at 65%. Moreover, the CL on Cytochrome P450 1A2 worked out at 0.3 µL/min/mg. Further, the inhibition entry in the data set with MDA-MB-436 [9] and with MDA-MB-436 [10] was “Active” in each case. Besides, it took 45 nM to reach the 90% level on PARP 1, 2 and 3 [11] (EC90).

For the compound `CNCc1ccc(-n2cc3cccc(C(N)=O)c3n2)cc1`, the microsomal CLint (commonly the rate of metabolic loss divided by the concentration) amounted to 22 µL/min/mg in [12]; 28 µL/min/mg in data set [4]; 3 µL/min/mg in [5]; 6 µL/min/mg at CYP1A2; 22 µL/min/mg in data set [19]; 28 µL/min/mg in [20]. Besides, in [21], the microsomal CLint amounted to 5 µL/min/mg. Further, the IC50 – broadly, the concentration that gives 50% inhibition – in data set [13] turned out to be 3.8 nM. For the same compound, the EC50 – broadly, the concentration that produces a half-maximal response – at PARP 1, 2 and 3 [14] is 68 nM. Moreover, the CC50 in the data set on HeLa [2] amounted to 460 nM; in the data set with HeLa [3], 5400 nM. Also, in [6], the clearance turned out to be 220 mL/min/kg. In data set [7], the bioavailability came out at 23%. Also, the “Selectivity Index” value in the data set with HeLa [15] turned out to be 10. Further, the Drug uptake in data set [16] came to 80 %ID; in [17], 50 %ID. For the same compound, the Stability entry in data set [18] is given as “Stable”. On PARP 1, 2 and 3 [11], the 90% effect level (EC90) was put at 740 nM.
